Converted amounts (≈) assume the structure as drawn. Like-named read-outs stand apart in the source and are kept apart here.
Assays:
[1] = system: Human normal lung fibroblasts MRC-5; assay: MTT-based viability (cytotoxicity) assay; settings: for IC50: Homo sapiens, MRC5, 48 h
Outline: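 MRC-5 pd30 human lung fibroblasts in supplemented MEME at 37 °C, 5% CO2; viability by MTT, absorbance 570 nm, triplicate, as percent of control cells. Selectivity index taken as IC50/MIC against S. aureus MRSA strains.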

[2] = system: C. parapsilosis ATCC 22019; assay: Antifungal activity: MIC/MFC, disc-diffusion; format: cell-based; settings: Lodderomyces parapsilosis, ATCC22019
Outline: (§1)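 Antimicrobial susceptibility was assessed by agar disc diffusion and MIC assays per EUCAST and CLSI standards. Minimum bactericidal and fungicidal concentrations were established according to CLSI.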

C. tropicalis ATCC 750 = assay: Antifungal activity: MIC/MFC, disc-diffusion; format: cell-based; settings: Candida tropicalis, ATCC750
Outline: as §1

C. tropicalis IBA 171 = assay: Antifungal activity: MIC/MFC, disc-diffusion; format: cell-based; settings: Candida tropicalis, IBA171
Outline: as §1

[3] = system: Staphylococcus aureus, MSSA and MRSA strains; assay: Antibacterial activity against S. aureus strains (text summaries); format: cell-based; settings: for Eagle effect (paradoxical growth) during MBC determination: S. aureus ATCC 6538P and five MRSA clinical strains
Description: (§2) Direct antimicrobial activity was determined against the following standard strains: (1) Gram-positive cocci: methicillin-sensitive Staphylococcus aureus ATCC 6538P (MSSA), methicillin-resistant S. aureus subsp. aureus ATCC 43300 (MRSA), S. epidermidis ATCC 12228, Enterococcus faecium ATCC 6057, E. faecalis ATCC 29212, Bacillus subtilis ATCC 6633; (2) Gram-negative bacteria from Enterobacteriales order: Klebsiella pneumoniae ATCC 13883, Escherichia coli ATCC 25922, Enterobacter cloacae DSM 6234, Proteus mirabilis ATCC 12453, Serratia marcescens ATCC 13880; (3) Gram-negative non-fermentative rods: Acinetobacter baumannii ATCC 19606, Pseudomonas aeruginosa ATCC 27853, Stenotrophomonas maltophilia ATCC 12714, S. maltophilia ATCC 13637, Burkholderia cepacia ATCC 25416, Bordetella bronchiseptica ATCC 4617; (4) yeasts: Candida albicans ATCC 90028, C. krusei ATCC 6258, C. parapsilosis ATCC 22019, C. tropicalis (Castellani) Berkhout ATCC 750, C. tropicalis IBA 171, C. guilliermondii IBA 155, and Saccharomyces cerevisiae ATCC 9763. Moreover, 5 clinical strains of methicillin-resistant S. aureus were also included: NMI 664 K, NMI 1576 K, NMI 1712 K, NMI 1991 K, and NMI 2541 K. All strains were stored at −80 °C. Prior to testing, each bacterial strain was subcultured twice on tryptic soy agar TSA (bioMerieux) medium and yeast strains on Sabouraud dextrose agar (bioMerieux) for 24–48 h at 30 °C to ensure viability. The antimicrobial activity was evaluated as previously described[26] by the disc-diffusion method and the MIC determination assays according to the EUCAST (ref. [71] and [72]) and CLSI (ref. [53] and [73]) recommendations. Assessment of bactericidal (MBC) and fungicidal (MFC) activities was performed according to the CLSI recommendations.[54,74] The following reference agents were used: fluconazole (in the case of fungi), linezolid (for Gram-positive bacteria), and nitrofurantoin (for Gram-negative rods). The new benzosiloxaboroles were dissolved in DMSO (Sigma).

[4] = system: S. aureus NMI 1576 K MRSA; assay: Antibacterial activity against clinical MRSA: MIC/MBC; format: cell-based; settings: Staphylococcus aureus
Description: as §2

S. aureus NMI 664 K MRSA = assay: as above; format: cell-based; settings: Staphylococcus aureus
Description: as §2

[5] = system: S. aureus NMI 2541 K MRSA; assay: as above; format: cell-based; settings: Staphylococcus aureus
Description: as §2

[6] = system: S. aureus NMI 1712 K MRSA; assay: as above; format: cell-based; settings: Staphylococcus aureus
Description: as §2

[7] = system: S. aureus NMI 1991 K MRSA; assay: as above; format: cell-based; settings: Staphylococcus aureus
Description: as §2

[8] = Staphylococcus aureus, both MSSA and MRSA strains, read-out: MIC values against Staphylococcus aureus
[9] = Staphylococcus aureus, standard and five clinical MRSA strains (Table 4), read-out: MIC (MRSA)
[10] = NMI 1576 K MRSA, read-out: MBC (first MBC where Eagle effect)
[11] = NMI 1576 K MRSA, read-out: second MBC (Eagle effect)
[12] = NMI 664 K MRSA, read-out: MBC (first MBC where Eagle effect)
[13] = NMI 664 K MRSA, read-out: second MBC (Eagle effect)
[14] = NMI 2541 K MRSA, read-out: MBC (first MBC where Eagle effect)
[15] = NMI 2541 K MRSA, read-out: second MBC (Eagle effect)
[16] = NMI 1712 K MRSA, read-out: MBC (first MBC where Eagle effect)
[17] = NMI 1712 K MRSA, read-out: second MBC (Eagle effect)
[18] = NMI 1991 K MRSA, read-out: MBC (first MBC where Eagle effect)
[19] = NMI 1991 K MRSA, read-out: second MBC (Eagle effect)
[20] = MRSA, read-out: MBC (first MBC where Eagle effect)
[21] = MRSA, read-out: second MBC (Eagle effect)

Row | SMILES | viability of MRC-5 ([1]; 6.25 µg·mL−1, 48 h) | viability of MRC-5 ([1]; 12.5 µg·mL−1, 48 h) | viability of MRC-5 ([1]; 25 µg·mL−1, 48 h) | viability of MRC-5 ([1]; 50 µg·mL−1, 48 h) | viability of MRC-5 ([1]; 100 µg·mL−1, 48 h) | viability of MRC-5 ([1]; 200 µg·mL−1, 48 h) | viability of MRC-5 ([1]; 400 µg·mL−1, 48 h) | IC50 [1] [µg/mL] | MIC ([2]; read-out: MIC) [µg/mL] | MIC (C. tropicalis ATCC 750; read-out: MIC) [µg/mL] | MIC (C. tropicalis IBA 171; read-out: MIC) [µg/mL] | MIC [3, 8] [µg/mL] | MBC [4, 10] [µg/mL] | MIC ([4]; NMI 1576 K MRSA, read-out: MIC) [µg/mL] | MBC (S. aureus NMI 664 K MRSA; [12]) [µg/mL] | MIC (S. aureus NMI 664 K MRSA; NMI 664 K MRSA, read-out: MIC) [µg/mL] | MBC [5, 14] [µg/mL] | MIC ([5]; NMI 2541 K MRSA, read-out: MIC) [µg/mL] | MBC [6, 16] [µg/mL] | MIC ([6]; NMI 1712 K MRSA, read-out: MIC) [µg/mL] | further results
1 | C[Si]1(C)OB(O)c2cc(F)c(SCCS(=O)(=O)c3ccccc3)c(F)c21 [Compound 20, 5,7-Difluoro-1,1-dimethyl-6-((2-(phenylsulfonyl)ethyl)thio)benzo[c][1,2,5]oxasilaborol-3(1H)-ol] | 101.2±1.7 % of control ± SD | 95.3±1.0 % of control ± SD | 93.5±2.1 % of control ± SD | 84.0±1.5 % of control ± SD | 68.5±4.9 % of control ± SD | 38.8±4.8 % of control ± SD | 3.4±0.9 % of control ± SD | 122 (≈ 294 µM) | > 400 | > 400 | > 400 | 1.56 to 12.5 (≈ 3.77 to 30.2 µM) | 12.5 (≈ 30.2 µM) | 6.25 (≈ 15.1 µM) | 12.5 (≈ 30.2 µM) | 6.25 (≈ 15.1 µM) | 25 (≈ 60.3 µM) | 6.25 (≈ 15.1 µM) | 12.5 (≈ 30.2 µM) | 6.25 (≈ 15.1 µM) | Eagle effect (paradoxical growth) during MBC determination [3]: Eagle effect; MIC [3, 9]: 3.12 to 6.25 µg/mL (≈ 7.53 to 15.1 µM); MBC [4, 11]: 400 µg/mL (≈ 965 µM); MBC (S. aureus NMI 664 K MRSA; [13]): 400 µg/mL (≈ 965 µM); MBC [5, 15]: 400 µg/mL (≈ 965 µM); MBC [6, 17]: 400 µg/mL (≈ 965 µM); MBC [7, 18]: 12.5 µg/mL (≈ 30.2 µM); MIC ([7]; NMI 1991 K MRSA, read-out: MIC): 6.25 µg/mL (≈ 15.1 µM); MBC [7, 19]: 400 µg/mL (≈ 965 µM)
2 | CC(=O)CSc1ccc2c(c1F)[Si](C)(C)OB2O [Compound 22, 1-((7-Fluoro-3-hydroxy-1,1-dimethyl-1,3-dihydrobenzo[c][1,2,5]oxasilaborol-6-yl)thio)propan-2-one] | 92.1±0.1 % of control ± SD | 91.5±2.5 % of control ± SD | 85.2±1.1 % of control ± SD | 94.4±2.1 % of control ± SD | 78.4±4.5 % of control ± SD | 69.6±3.7 % of control ± SD | 41.4±0.4 % of control ± SD | > 200 | > 400 | > 400 | > 400 | 1.56 to 12.5 (≈ 5.49 to 44 µM) | 200 (≈ 704 µM) | 6.25 (≈ 22 µM) | 200 (≈ 704 µM) | 6.25 (≈ 22 µM) | 200 (≈ 704 µM) | 3.12 (≈ 11 µM) | 400 (≈ 1410 µM) | 6.25 (≈ 22 µM) | MIC [3, 9]: 3.12 to 6.25 µg/mL (≈ 11 to 22 µM); MBC [7, 18]: 200 µg/mL (≈ 704 µM); MIC ([7]; NMI 1991 K MRSA, read-out: MIC): 3.12 µg/mL (≈ 11 µM)
3 | C[Si]1(C)OB(O)c2ccc(SCC(=O)c3ccccc3)c(F)c21 [Compound 23, 2-((7-Fluoro-3-hydroxy-1,1-dimethyl-1,3-dihydrobenzo[c][1,2,5]oxasilaborol-6-yl)thio)-1-phenylethan-1-one] | 99.3±8.4 % of control ± SD | 94.3±0.1 % of control ± SD | 83.3±4.4 % of control ± SD | 85.9±5.1 % of control ± SD | 64.2±3.6 % of control ± SD | 32.0±0.3 % of control ± SD | 1.0±1.3 % of control ± SD | 126 (≈ 364 µM) | 400 (≈ 1160 µM) | 400 (≈ 1160 µM) | 400 (≈ 1160 µM) | 1.56 to 12.5 (≈ 4.51 to 36.1 µM) | 6.25 (≈ 18 µM) | 3.12 (≈ 9.01 µM) | 3.12 (≈ 9.01 µM) | 3.12 (≈ 9.01 µM) | 6.25 (≈ 18 µM) | 1.56 (≈ 4.51 µM) | 25 (≈ 72.2 µM) | 3.12 (≈ 9.01 µM) | Eagle effect (paradoxical growth) during MBC determination [3]: Eagle effect; MIC [3, 9]: 1.56 to 3.12 µg/mL (≈ 4.51 to 9.01 µM); MBC [4, 11]: 100 µg/mL (≈ 289 µM); MBC (S. aureus NMI 664 K MRSA; [13]): 200 µg/mL (≈ 578 µM); MBC [5, 15]: 200 µg/mL (≈ 578 µM); MBC [6, 17]: 200 µg/mL (≈ 578 µM); MBC [7, 18]: 3.12 µg/mL (≈ 9.01 µM); MIC ([7]; NMI 1991 K MRSA, read-out: MIC): 1.56 µg/mL (≈ 4.51 µM); MBC [7, 19]: 200 µg/mL (≈ 578 µM)
4 | CCOP(=O)(OCC)Sc1c(F)cc2c(c1F)[Si](C)(C)OB2O [Compound 24, S-(5,7-Difluoro-3-hydroxy-1,1-dimethyl-1,3-dihydrobenzo[c][1,2,5]oxasilaborol-6-yl) O,O-diethyl phosphorothioate] | 95.5±1.4 % of control ± SD | 83.9±0.1 % of control ± SD | 81.6±2.6 % of control ± SD | 78.2±3.0 % of control ± SD | 73.0±4.0 % of control ± SD | 76.5±3.8 % of control ± SD | 60.5±3.8 % of control ± SD | > 400 |  |  |  | 1.56 to 12.5 (≈ 4.08 to 32.7 µM) |  |  |  |  |  |  |  |  | MIC [2]: > 400 µg/mL; MIC (C. tropicalis ATCC 750): > 400 µg/mL; MIC (C. tropicalis IBA 171): > 400 µg/mL; Eagle effect (paradoxical growth) during MBC determination [3]: Eagle effect; MIC ([4]; MRSA): 6.25 µg/mL (≈ 16.4 µM); MBC [4, 20]: 12.5 µg/mL (≈ 32.7 µM); MBC [4, 21]: 400 µg/mL (≈ 1050 µM); MIC (S. aureus NMI 664 K MRSA; MRSA): 6.25 µg/mL (≈ 16.4 µM); MBC (S. aureus NMI 664 K MRSA; [20]): 25 µg/mL (≈ 65.4 µM); MBC (S. aureus NMI 664 K MRSA; [21]): > 400 µg/mL; MIC ([5]; MRSA): 12.5 µg/mL (≈ 32.7 µM); MBC [5, 20]: 12.5 µg/mL (≈ 32.7 µM); MBC [5, 21]: > 400 µg/mL; MIC ([6]; MRSA): 12.5 µg/mL (≈ 32.7 µM); MBC [6, 20]: 25 µg/mL (≈ 65.4 µM); MBC [6, 21]: > 400 µg/mL; MIC ([7]; MRSA): 12.5 µg/mL (≈ 32.7 µM); MBC [7, 20]: 12.5 µg/mL (≈ 32.7 µM); MBC [7, 21]: > 400 µg/mL
5 | C[Si]1(C)OB(O)c2ccc(SC(=O)c3ccc(C(F)(F)F)cc3)c(F)c21 [Compound 25, S-(7-Fluoro-3-hydroxy-1,1-dimethyl-1,3-dihydrobenzo[c][1,2,5]oxasilaborol-6-yl) 4-(trifluoromethyl)benzothioate] |  |  |  |  |  |  |  | 112 (≈ 279 µM) | > 50 | > 50 | 50 (≈ 125 µM) |  | 50 (≈ 125 µM) | 25 (≈ 62.5 µM) | 25 (≈ 62.5 µM) | 12.5 (≈ 31.2 µM) | 25 (≈ 62.5 µM) | 12.5 (≈ 31.2 µM) | 25 (≈ 62.5 µM) | 12.5 (≈ 31.2 µM) | MBC ([3]; Staphylococcus aureus, lowest MBC values): 25 to 50 µg/mL (≈ 62.5 to 125 µM); MBC [7, 18]: 50 µg/mL (≈ 125 µM); MIC ([7]; NMI 1991 K MRSA, read-out: MIC): 25 µg/mL (≈ 62.5 µM)

— publication PMC11110727, “Exploiting thiol-functionalized benzosiloxaboroles for achieving diverse substitution patterns – synthesis, characterization and biological evaluation of promising antibacterial agents” (RSC Medicinal Chemistry, 2024)
